Source: paper PMC2919388, “A Screening Pipeline for Antiparasitic Agents Targeting Cryptosporidium Inosine Monophosphate Dehydrogenase” (PLoS Neglected Tropical Diseases, 2010)
Like-named read-outs stand apart in the source and are kept apart here.

Experiments:
wild-type T. gondii = assay: Fluorescent T. gondii growth assay, wild-type strain; type: cell-based, Toxoplasma gondii
Source text: (§1) Wild-type T. gondii and T. gondii-ΔHXGPRT parasites were transfected with plasmid ptubYFPYFsagCAT [37] which drives constitutive cytoplasmic expression of two copies of the yellow fluorescent protein. Similarly, plasmid pCTR2T [38] was transfected into T. gondii-CpIMPDH resulting in constitutive cytoplasmic expression of a tandem of the tomato variant of the red fluorescent protein [39]. Fluorescent parasites were selected and cloned by cell sorting using a MoFlo Legacy instrument (Beckman Coulter, Inc). Growth of fluorescent clones was monitored in 96 well plates as previously described. Briefly, fluorescence was read daily with a SpectraMax M22/M2e (Molecular Devices) plate reader (Ex 485, Em 530) for 6–7 days. For each of the three fluorescent T. gondii clones percent growth inhibition was calculated on a day within the exponential phase of growth for the purpose of determining an IC50 for each compound.
(§2) Supplementary file pntd.0000794.s002.tif: Figure S2 Obtaining an EC50 value for T. gondii growth. Fluorescent T. gondii parasites are seeded into 96-well plates and spiked with test compound. Fluorescence is measured daily with a SpectraMax M22/M2e (Molecular Devices) plate reader for 6–7 days. The fluorescence readings on a day during the exponential phase of the growth curve, for example day 4 in A, are used to calculated percent growth inhibition. These values are fitted using the 4 parameter model y = D+(A–D)/(1+(x/C)^B) where D is the minimum value, A is the maximum value, C is the EC50 and B is the Hill coefficient, using the SoftMax Pro v5 software, as illustrated in B. The absolute EC50 is recorded at the x intercept where y = 50. (0.33 MB TIF) Click here for additional data file.

T. gondii-CpIMPDH = assay: Fluorescent T. gondii growth assay, CpIMPDH reporter strain; type: cell-based, Toxoplasma gondii; conditions: for Selectivity = EC50(T. gondii-wild-type)/EC50(T. gondii-CpIMPDH): Figure 5 Sel
Source text: as §1
To facilitate screening of antiparasitic activity, we constructed a T. gondii reporter parasite that mirrors the Cryptosporidium purine metabolism. Figure 1 summarizes the main differences between the two parasites in this pathway. We started with a T. gondii knockout mutant that, like C. parvum, lacks the ability to salvage xanthine and guanine via HXGPRT (T. gondii-ΔHXGPRT [41]) and introduced the CpIMPDH gene under the control of a T. gondii promoter. Next the native T. gondii IMPDH gene was disrupted by replacing the entire coding sequence with a chloramphenicol acetyl transferase cassette using a new cosmid-based gene targeting approach. […] This manipulation created strain T. gondii-CpIMPDH-ΔHXGPRT-ΔTgIMPDH. Lastly, we introduced a fluorescent protein cassette and isolated stable transgenic parasites by cell sorting. The resulting strain is referred to as T. gondii-CpIMPDH. […] We similarly engineered fluorescent versions of wild-type T. gondii and T. gondii-ΔHXGPRT to serve as controls.
as §2

HCT-8 cells = assay: Fluorescent HCT-8 host cell growth assay; type: cell-based, human; conditions: for activity at 25 µM: Homo sapiens, HCT-8, compound at 25 μM, relative to DMSO alone; for effect on host cell (HCT-8) growth: in words
Protocol: HCT-8 cells were transfected with plasmid pmaxGFP (Amaxa) using Lipofectamine (Invitrogen). Fluorescent lines were then selected and cloned using cell sorting. Confluent monolayers of pmaxGFP expressing cells were harvested from T75 flasks and passed through a 40 µm cell strainer. Cells were seeded at 4000 cells per well into black, optical quality, thin bottom, 96-well plates. All test compounds were diluted in DMSO as described. The fluorescence was read daily with a SpectraMax M22/M2e (Molecular Devices) plate reader (Ex 485, Em 530) for 6–7 days. Percent inhibition was calculated on a day within the exponential phase of growth.

C. parvum = assay: High-content imaging C. parvum growth assay (FITC-VVL); type: cell-based, Cryptosporidium parvum; conditions: for EC50: Cryptosporidium parvum, HCT-8, 48 h, growth in HCT-8 cells, 48 hours; for potency relative to paromomycin: anticryptosporidial activity
Protocol: The human ileocecal adenocarcinoma epithelial cell line, HCT-8, was used to support C. parvum infection in vitro. HCT-8 cells were maintained in RPMI-1640 (Hyclone) supplemented with 10% FBS, 1 mM sodium pyruvate, 50 U/m penicillin, 50 µg/ml streptomycin, and amphotericin B. Cryptosporidium parvum oocysts were a kind gift from either Dr. Mead (Emory University) or Dr. Kissinger (University of Georgia). HCT-8 cells (2×10^5) were seeded into black, optical quality, thin bottom, 96-well plates (DB Falcon) to achieve a 70% confluent monolayer on the day of infection. To facilitate oocyst excystation, a procedure described by Gut et al., was followed. Briefly, oocysts were washed twice with 1 ml of PBS (pH 7.2), incubated for 10 minutes at 37°C in 1 ml 10 mM of HCl and then incubated for a further 10 minutes in 0.2 ml of 200 µM sodium taurocholate at 15°C [40]. This oocyst suspension was diluted directly with DMEM (Hyclone) supplemented with 2% FBS, 50 U/ml penicillin, 50 µg/ml streptomycin, amphotericin B and 0.2 mM L-glutamine (infection medium) to inoculate host cell monolayers at 5×10^5 oocysts per well. Host cell monolayers were incubated for 3 hours at 37°C prior to removal of unexcysted oocysts by aspiration and PBS wash. Infection medium was then added to the monolayers and infection was allowed to progress for 48 hours.
The VVL IFA was performed in a 96-well format. Following 48 hours of culture C. parvum infected HCT-8 cells were washed with PBS and fixed with 0.2 ml/well of 3% paraformaldehyde/PBS, permeabilized with 0.25% Triton-X-100/PBS and blocked with 4% BSA/PBS. 0.1 ml of fluorescein (FITC)-conjugated VVL (Vector Labs 0.5 µg/ml) in 1% BSA/PBS was applied to wells and incubated for 45 minutes. The plates were washed twice with 200 µl/well of PBS. In the first wash DAPI was included at 0.1 µg/ml. Finally 200 µl/well of PBS was added to the plates prior to storage at 4°C protected from light.
Confocal images were acquired using a BD Biosciences Bioimager P435. The instrument was programmed to automatically change position and focus, capture montage images of 9–16, 40× fields per well, and then compress and save the image files. Object finding algorithms were developed for the recognition of FITC-VVL labelled C. parvum parasites and DAPI labelled host cell nuclei using Attovision Software (BD Biosciences). Briefly, to identify FITC-VVL labelled parasites, the object finding algorithm included, a flat field correction, a polygon shape setting, a 3×3 rolling ball filter, manual pixel intensity thresholding (100 min – 4095 max), and minimum and maximum object size cut-offs of 5 pixels and 350 pixels respectively. The algorithm optimised for finding DAPI labelled host cell nuclei also included flat field correction and polygon shape setting, but applied a 25×25 rolling ball filter which is more suitable for larger objects, an automated pixel intensity threshold, minimum and maximum object size cut-offs of 200 pixels and 4000 pixels respectively, and a watershed step with an erosion factor of 8 to aid in the separation of adjacent densely packed nuclei. Note that the intensity and area size cut off exclude detection of the much smaller parasite nuclei (the human genome is three hundred times larger than the C. parvum genome).
The object finding analysis steps described above recorded the number and area of objects per montage image. The output files along with a plate map file were then passed to an automated analysis pipeline (Pipeline Pilot Software, Accelrys) to calculate the mean number of parasites, the ratio of parasite number to host cell nuclei number, the mean area of parasites and host cell nuclei by well, and the percentage growth by treatment as compared to the no drug control. These analyses were exported in graphical format for each plate and the numerical values tabulated in html format. […]

CpIMPDH = CpIMPDH (Cryptosporidium parvum, UniProt Q8T6T2); conditions: cited from earlier work
T. gondii-ΔHXGPRT = assay: Fluorescent T. gondii growth assay, ΔHXGPRT strain; type: cell-based; conditions: Toxoplasma gondii, read-out: T. gondii model EC50 ΔHXGPRT, T. gondii-ΔHXGPRT
Source text: as §1, §2

[1] = Toxoplasma gondii, wild-type T. gondii, no added xanthine, read-out: T. gondii model EC50 WT
[2] = wild-type T. gondii, no added xanthine, read-out: T. gondii model EC50 WT
[3] = Toxoplasma gondii, read-out: T. gondii model EC50 CpIMPDH, T. gondii-CpIMPDH, absence of xanthine

CpIMPDH, sequence (Q8T6T2 whole entry): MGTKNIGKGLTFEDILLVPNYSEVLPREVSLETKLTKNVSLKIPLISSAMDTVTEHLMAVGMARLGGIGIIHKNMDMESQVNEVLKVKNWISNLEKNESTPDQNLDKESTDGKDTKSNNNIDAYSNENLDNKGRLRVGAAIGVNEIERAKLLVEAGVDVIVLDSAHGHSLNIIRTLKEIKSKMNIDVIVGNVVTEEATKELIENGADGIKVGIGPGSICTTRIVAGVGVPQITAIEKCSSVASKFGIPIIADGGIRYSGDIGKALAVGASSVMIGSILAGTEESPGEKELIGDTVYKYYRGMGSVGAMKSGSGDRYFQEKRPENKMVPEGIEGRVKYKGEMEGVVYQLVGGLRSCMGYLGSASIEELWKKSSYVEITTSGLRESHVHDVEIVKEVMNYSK

Row | Compound | EC50 (wild-type T. gondii; [1]) [µM] | EC50 (wild-type T. gondii; [2]) [µM] | Selectivity = EC50(T. gondii-wild-type)/EC50(T. gondii-CpIMPDH) (T. gondii-CpIMPDH) | EC50 (T. gondii-CpIMPDH; read-out: T. gondii model EC50 CpIMPDH, T. gondii-CpIMPDH, absence of xanthine) [nM] | activity at 25 µM (HCT-8 cells) [%] | effect on host cell (HCT-8) growth (HCT-8 cells) | EC50 (C. parvum) [µM] | IC50 (CpIMPDH; read-out: CpIMPDH Inhibition IC50 - BSA) [nM] | EC50 (T. gondii-ΔHXGPRT) [µM] | EC50 (T. gondii-CpIMPDH; [3]) [nM] | IC50 (CpIMPDH; in the presence of BSA, values marked c, read-out: CpIMPDH Inhibition IC50 + BSA) [nM] | IC50 (CpIMPDH; without BSA, values marked c, read-out: CpIMPDH Inhibition IC50 - BSA) [nM] | selectivity for the T. gondii-CpIMPDH parasite over wild-type T. gondii (T. gondii-CpIMPDH) [fold] | inhibition of HCT-8 cell growth (HCT-8 cells; at 12.5 µM and 25 µM) | potency relative to paromomycin (C. parvum) [×] | EC50 (wild-type T. gondii; Toxoplasma gondii, media supplemented with xanthine (0.33 mM), read-out: EC50 wild-type T. gondii with xanthine) [µM] | CpIMPDH inhibition by MPA (CpIMPDH; at concentrations active against TgIMPDH)
1 | CC(Oc1ccc(Cl)c2ccccc12)c1cn(-c2ccc(Cl)cc2)nn1 (stereo not drawn) [Compound A82] | 5 ± 2 | ≤ 10 | 0.9 | ≤ 10000 | 108 ± 2 | do not inhibit host cell growth | 6 to 13 | 90 ± 30 | – | – | – | – | – | – | – | – | –
2 | CC(Oc1ccnc2ccccc12)c1cn(-c2ccc(Cl)cc2)nn1 (stereo not drawn) [Compound A89] | 4.9 ± 0.9 | – | 14 | – | 43 ± 2 | – | < 13 | – | 6 ± 2 | 400 ± 200 | – | – | – | – | – | – | –
3 | CC(Oc1ccnc2ccccc12)c1cn(-c2ccc(Cl)c(Cl)c2)nn1 (stereo not drawn) [Compound A90] | 5 ± 3 | ≤ 10 | 1.5 | – | 77 ± 5 | do not inhibit host cell growth | 6 to 13 | – | – | – | – | – | – | – | – | – | –
4 | CC(Oc1ccnc2ccccc12)c1cn(-c2ccc(C#N)c(Cl)c2)nn1 (stereo not drawn) [Compound A92] | 9 ± 2 | – | 1.6 | – | 47 ± 1 | – | 3 to 6 | – | 8 ± 4 | 5000 ± 1000 | – | – | – | – | – | – | –
5 | C[C@@H](Oc1cncc2ccccc12)c1cn(-c2ccc(Cl)cc2)nn1 [Compound A98] | 2.8 ± 0.1 | – | > 12 | – | 65 ± 7 | – | 3 to 6 | – | 2.3 ± 0.6 | < 200 | 30 ± 1 | 9 ± 1 | – | – | – | – | –
6 | CC(Oc1cc[n+]([O-])c2ccccc12)c1cn(-c2ccc(Cl)c(Cl)c2)nn1 (stereo not drawn) [Compound A103] | 19 ± 4 | ≥ 20 | 36 | – | 33 ± 6 | – | < 0.8 | – | 17 ± 4 | 500 ± 400 | – | – | ≥ 36 | inhibit HCT-8 cell growth significantly | > 100 | – | –
7 | C[C@@H](Oc1ccnc2ccccc12)c1cn(-c2ccc(Cl)c(Cl)c2)nn1 [Compound A105] | – | – | 2.9 | – | 81 ± 13 | do not inhibit host cell growth | 6 to 13 | – | – | – | – | – | – | – | – | – | –
8 | C[C@H](Oc1ccnc2ccccc12)c1cn(-c2ccc(Cl)c(Cl)c2)nn1 [Compound A107] | 6 | – | 3.1 | – | 64 ± 16 | – | < 13 | – | 7 | 2400 | – | – | – | – | – | – | –
9 | C[C@H](Oc1ccnc2ccccc12)c1cn(-c2ccc(C#N)c(Cl)c2)nn1 [Compound A108] | 5 | – | 1.3 | – | 47 ± 14 | – | 12 to 25 | – | – | 3900 | – | – | – | – | – | – | –
10 | C[C@@H](Oc1cc[n+]([O-])c2ccccc12)c1cn(-c2ccc(Cl)cc2)nn1 [Compound A110] | 23 ± 2 | – | > 120 | – | 94 ± 12 | – | < 0.8 | – | > 25 | < 200 | – | – | ≥ 36 | – | > 100 | – | –
11 | COc1c(C)c2c(c(O)c1C/C=C(\C)CCC(=O)O)C(=O)OC2 [MPA, mycophenolic acid, reference compound] | 2.6 | – | – | – | – | – | – | – | 0.29 | > 65000 | – | – | – | – | – | ≥ 78 | not inhibited
